Consider 15 molecules from US11840535B2, “Alkynyl(hetero)aromatic compound for inhibiting protein kinase activity” (Shenzhen TargetRx, Inc., priority 2018, dated 2023).

For one test, the target named is ABL (Homo sapiens (Human), UniProt P00519). The experiment in a line: Biochemical kinase analysis, ABL. How it is done:
(§1) Reagents and materials: ABL (ThermoFisher, Cat. No PV3585), ABL^T315I (Thermo Fisher, Cat. No. PR7429B), ATP (Sigma, Cat. No. A7699-1G), DMSO (Sigma, Cat. No. D2650), 96-well plate (Corning, Cat. No. 3365), 384-well plate (Greiner, Cat. No. 784076), buffer solution (Thermo Fisher, Cat. No. PR4876B).
(§2) Compound formulation: The test compounds were dissolved in DMSO to prepare a 20 mM stock solution. Before use, the compounds were diluted in DMSO to 0.1 mM, and diluted into 11 concentrations with a 3-fold gradient. When addition, diluentions of 4-fold final concentration were then made with buffer solution.
(§3) Kinase assay method: After preparing the buffer, the enzyme was mixed with pre-formulated and diluted compounds of different concentrations in duplicate for each concentration, and placed at room temperature for 30 minutes. The corresponding substrate and ATP were added thereto, and reacted at room temperature for 60 minutes (both a negative and a positive control were set). After the reaction, antibody was added for detection, Envision detection was carried out after 60 minutes incubation at room temperature, and data was collected. Data analysis and fitting were made according to XLfit5 software, wherein, A represents IC50≤5 nM, B represents IC50 is 5-50 nM, C represents IC50 is 50-100 nM, D represents IC50>100 nM.

The target of a further test is ABL^T315I (Homo sapiens (Human), UniProt P00519, T315I). The experiment in a line: Biochemical kinase analysis, ABL T315I. How it is done: as §1, §2, §3
The test system of the next test is Ba/F3 parental cells. As to the kind of experiment: Cell proliferation analysis, Ba/F3 parental. The class given is cell-based. To be noted: Mus musculus, BaF3, 72 h; 8 ng/ml IL-3, 3 days, CellTiter-Glo. How it is done: (§4) The inhibitory effect of the example compounds on Ba/F3, Ba/F3 Bcr-Abl T315I cell activity was determined.
(§5) Materials and reagents: RPMI-1640 medium (GIBCO, Catalog No. A10491-01), fetal bovine serum (GIBCO, Catalog No. 10099141), antibiotics (Penicillin-Streptomycin), IL-3 (PeproTech), promycin; cell lines: Ba/F3, Ba/F3 Bcr-Abl T315I (Purchased from American type culture collection, ATCC), live cell detection kit […] (Promega, Catalog No. G7572), 96-well black wall transparent flat bottom cell culture plate (Corning, Catalog No. 3340).
(§6) Test method: 1. Preparation of cell plate: Ba/F3, Ba/F3 Bcr-Abl T315I cells were respectively seeded in 96-well plates, and 8 ng/ml IL-3 was added to the Ba/F3 cells, and the cell plates were placed in a carbon dioxide incubator and cultured overnight. 2. The test compounds were dissolved in DMSO, 9 compound concentrations were made with a 3.16-fold gradient dilution in triplicate. 3. Treatment of the cells with compounds: The compounds were transferred to the cell plate with a starting concentration of 10 μM. The cell plate was placed in a carbon dioxide incubator for 3 days. 4. Detection: CellTiter-Glo agent was added to the cell plate, and incubated at room temperature for 30 minutes to stabilize the luminous signal. PerkinElmer Envision multi-label analyzer was used for reading, wherein A represents […], B represents IC50 is 10-20 nM, C represents IC50 is 20-50 nM, D represents IC50 is 50-1000 nM, E represents IC50>1000 nM.
In general terms: In ATP-based viability assays light output follows the ATP content of the culture.

Test [1] deals with Ba/F3 Bcr-Abl T315I cells. The experiment in a line: Cell proliferation analysis, Ba/F3 Bcr-Abl T315I. In kind it is cell-based. The settings on record: for pIC50: Mus musculus, BaF3, 72 h, 3 days, CellTiter-Glo; for Selectivity [Ba/F3 (parental/Bcr-Abl ^T315I)]: ratio of Ba/F3 parental to Ba/F3 Bcr-Abl T315I. How it is done: as §4, §5, §6

Each structure is given as a SMILES string. pIC50: −log10 of the molar value.

For the molecule `CCc1nc(C#Cc2cc(C(=O)Nc3ccc(CN4CCN(C)CC4)c(C(F)(F)F)c3)ccc2C)c2c(N)nccn12` [Example 1, 3-((8-amino-3-ethylimidazo[1,5-a]pyrazin-1-yl)ethynyl)-4-methyl-N-(4-((4-methylpiperazin-1-yl)methyl)-3-(trifluoromethyl)phenyl)benzamide], the negative logarithm of the IC50 (pIC50) (as a rule, −log10 of the IC50, conventionally taken in molar units) was no less than 8.30 on ABL, no less than 8.30 against ABL^T315I, less than 6.00 in the test with Ba/F3 parental cells and 7.30 to 7.70 in test [1]. The “Selectivity [Ba/F3 (parental/Bcr-Abl ^T315I)]” value in test [1] is on record as 50~100.
Regarding `CCc1nc(C#Cc2cc(C(=O)Nc3cccc(C(F)(F)F)c3)ccc2C)c2c(N)nccn12` [Example 2, 3-((8-amino-3-ethylimidazo[1,5-a]pyrazin-1-yl)ethynyl)-4-methyl-N-(3-(trifluoromethyl)phenyl)benzamide], the values for the negative logarithm of the IC50 (pIC50) against ABL and against ABL^T315I were 7.30 to 8.30 and 7.00 to 7.30, respectively.
For the molecule `CCn1cc(C#Cc2cccc(C(=O)Nc3cccc(C(F)(F)F)c3)c2)c2c(N)ncnc21` [Example 8, 3-((4-amino-7-ethyl-7H-pyrrolo[2,3-d]pyrimidin-5-yl)ethynyl)-N-(3-(trifluoromethyl)phenyl)benzamide], the pIC50 on ABL and at ABL^T315I was no less than 8.30 in each case.
Consider `CCn1cc(C#Cc2cc(C(=O)Nc3ccc(CN(C)C)c(C(F)(F)F)c3)ccc2C)c2c(N)ncnc21` [Example 9, 3-((4-amino-7-ethyl-7H-pyrrolo[2,3-d]pyrimidin-5-yl)ethynyl)-N-(4-((dimethylamino)methyl)-3-(trifluoromethyl)phenyl)-4-methylbenzamide], for which the pIC50 against ABL was no less than 8.30; at ABL^T315I, no less than 8.30; in the test with Ba/F3 parental cells, less than 6.00; in test [1], 7.70 to 8.00. Moreover, the “Selectivity [Ba/F3 (parental/Bcr-Abl ^T315I)]” value in test [1] is 150~500.
With `Cc1ccc(NC(=O)c2ccc(C)c(C(F)(F)F)c2)cc1C#Cc1cn(C2CCCC2)c2ncnc(N)c12` [Example 20, N-(3-((4-amino-7-cyclopentyl-7H-pyrrolo[2,3-d]pyrimidin-5-yl)ethynyl)-4-methylphenyl)-4-methyl-3-(trifluoromethyl)benzamide], the pIC50 against ABL is 7.30 to 8.30; against ABL^T315I, 7.00 to 7.30.
With `CCn1cc(C#Cc2cc(NC(=O)c3cc(-n4cnc(C)c4)cc(C(F)(F)F)c3)ccc2C)c2c(N)ncnc21` [Example 21, N-(3-((4-amino-7-ethyl-7H-pyrrolo[2,3-d]pyrimidin-5-yl)ethynyl)-4-methylphenyl)-3-(4-methyl-1H-imidazol-1-yl)-5-(trifluoromethyl)benzamide], the pIC50 against ABL was no less than 8.30; against ABL^T315I, 7.30 to 8.30; in the test with Ba/F3 parental cells it was 6.00 to 7.30; in test [1] it was no less than 8.00. Further, the “Selectivity [Ba/F3 (parental/Bcr-Abl ^T315I)]” value in test [1] is recorded as 50~100.
With `Cc1cn(-c2cc(NC(=O)c3ccc(C)c(C#Cc4cn(C)c5ncnc(N)c45)c3)cc(C(F)(F)F)c2)cn1` [Example 11, 3-((4-amino-7-methyl-7H-pyrrolo[2,3-d]pyrimidin-5-yl)ethynyl)-4-methyl-N-(3-(4-methyl-1H-imidazol-1-yl)-5-(trifluoromethyl)phenyl)benzamide], the negative-log IC50 (pIC50) against ABL was no less than 8.30; at ABL^T315I, 7.30 to 8.30; in the test with Ba/F3 parental cells it was less than 6.00; in test [1], 7.70 to 8.00. For the same molecule, the “Selectivity [Ba/F3 (parental/Bcr-Abl ^T315I)]” value in test [1] is greater than 500.
For `CCn1cc(C#Cc2cc(C(=O)Nc3cc(-n4cnc(C)c4)cc(C(F)(F)F)c3)ccc2C)c2c(N)ncnc21` [Example 10, 3-((4-amino-7-ethyl-7H-pyrrolo[2,3-d]pyrimidin-5-yl)ethynyl)-4-methyl-N-(3-(4-methyl-1H-imidazol-1-yl)-5-(trifluoromethyl)phenyl)benzamide] the same measures were 7.30 to 8.30, 7.30 to 8.30, less than 6.00, 7.70 to 8.00 and 150~500.
On to `Cc1ccc(C(=O)Nc2cccc(C(F)(F)F)c2)cc1C#Cc1cn([C@H]2CC[C@H](O)CC2)c2ncnc(N)c12` [Example 23, 3-((4-amino-7-((1r,4r)-4-hydroxycyclohexyl)-7H-pyrrolo[2,3-d]pyrimidin-5-yl)ethynyl)-4-methyl-N-(3-(trifluoromethyl)phenyl)benzamide], for which the results for the negative-log IC50 (pIC50) at ABL and against ABL^T315I were no less than 8.30 and 7.30 to 8.30, respectively.
On to `Cc1ccc(C(=O)Nc2ccc(C)c(C(F)(F)F)c2)cc1C#Cc1cn([C@H]2CC[C@H](O)CC2)c2ncnc(N)c12` [Example 24, 3-((4-amino-7-((1r,4r)-4-hydroxycyclohexyl)-7H-pyrrolo[2,3-d]pyrimidin-5-yl)ethynyl)-4-methyl-N-(4-methyl-3-(trifluoromethyl)phenyl)benzamide], for which the negative-log IC50 (pIC50) at ABL was no less than 8.30; against ABL^T315I, 7.30 to 8.30; in the test on Ba/F3 parental cells it was less than 6.00; in test [1], 7.70 to 8.00. For the same molecule, the “Selectivity [Ba/F3 (parental/Bcr-Abl ^T315I)]” value in test [1] is listed as 150~500.
On to `Cc1ccc(C(=O)Nc2ccc(CN3CCN(C)CC3)c(C(F)(F)F)c2)cc1C#Cc1nc(C)n2ccnc(N)c12` [Example 3, 3-((8-amino-3-methylimidazo[1,5-a]pyrazin-1-yl)ethynyl)-4-methyl-N-(4-((4-methylpiperazin-1-yl)methyl)-3-(trifluoromethyl)phenyl)benzamide], for which the negative logarithm of the IC50 (pIC50) against ABL and against ABL^T315I was no less than 8.30 each time.
Turning to `CCn1cc(C#Cc2cc(C(=O)Nc3cccc(C(F)(F)F)n3)ccc2C)c2c(N)ncnc21` [Example 7, 3-((4-amino-7-ethyl-7H-pyrrolo[2,3-d]pyrimidin-5-yl)ethynyl)-4-methyl-N-(6-(trifluoromethyl)pyridin-2-yl)benzamide], the pIC50 on ABL was no less than 8.30; against ABL^T315I, 7.30 to 8.30.
For `Cc1ccc(NC(=O)c2ccc(CN3CCN(C)CC3)c(C(F)(F)F)c2)cc1C#Cc1cn(C)c2ncnc(N)c12` [Example 19, N-(3-((4-amino-7-methyl-7H-pyrrolo[2,3-d]pyrimidin-5-yl)ethynyl)-4-methylphenyl)-4-((4-methylpiperazin-1-yl)methyl)-3-(trifluoromethyl)benzamide], the negative-log IC50 (pIC50) on ABL is no less than 8.30; against ABL^T315I, no less than 8.30; with Ba/F3 parental cells it was less than 6.00; in test [1], no less than 8.00. The “Selectivity [Ba/F3 (parental/Bcr-Abl ^T315I)]” value in test [1] was 150~500.
Take `Cc1ccc(C(=O)Nc2ccc(CN3CCN(C)CC3)c(C(F)(F)F)c2)cc1C#Cc1cn(C)c2ncnc(N)c12` [Example 16, 3-((4-amino-7-methyl-7H-pyrrolo[2,3-d]pyrimidin-5-yl)ethynyl)-4-methyl-N-(4-((4-methylpiperazin-1-yl)methyl)-3-(trifluoromethyl)phenyl)benzamide]: the negative-log IC50 (pIC50) on ABL is no less than 8.30; against ABL^T315I it was no less than 8.30; in the test with Ba/F3 parental cells, less than 6.00; in test [1], no less than 8.00. Besides, the “Selectivity [Ba/F3 (parental/Bcr-Abl ^T315I)]” value in test [1] is given as 150~500.
With `Cc1ccc(C(=O)Nc2ccc(CN3CCN(C)CC3)c(C(F)(F)F)c2)cc1C#Cc1nc(C(C)C)n2ccnc(N)c12` [Example 4, 3-((8-amino-3-isopropylimidazo[1,5-a]pyrazin-1-yl)ethynyl)-4-methyl-N-(4-((4-methylpiperazin-1-yl)methyl)-3-(trifluoromethyl)phenyl)benzamide], the negative-log IC50 (pIC50) against ABL was no less than 8.30; on ABL^T315I, no less than 8.30; in the test on Ba/F3 parental cells, less than 6.00; in test [1], 6.00 to 7.30. For the same molecule, in test [1], the “Selectivity [Ba/F3 (parental/Bcr-Abl ^T315I)]” value is given as 0~50.
